Values after ≈ are worked out from the molar mass of the structure shown.

Test [1] relates to multi-drug resistant tuberculosis (MDR-TB). The test is described as follows: Anti-tubercle bacillus activity, liquid medium dilution MIC. It counts as cell-based. The conditions noted are these: for MIC: Bacillus, 168 h, read-out: antibacterial activity (MIC) of β-lactam agent alone.
Test [2] relates to extensively drug-resistant tuberculosis (XDR-TB). The test is described as above. Type of test: cell-based. The conditions noted are these: for MIC: Bacillus, 168 h, read-out: antibacterial activity (MIC) of β-lactam agent alone.

Usually MIC stands for the lowest concentration that inhibits growth of the organism. Take `CC1(C)S[C@@H]2[C@H](NC(=O)[C@H](N)c3ccccc3)C(=O)N2[C@H]1C(=O)O` [ABPC, ampicillin, reference compound]: the minimal inhibitory concentration (MIC) in test [1] turned out to be 128 µg/mL (≈ 366 µM); in test [2], 32 µg/mL (≈ 91.6 µM).

Regarding `CC1(C)S[C@@H]2[C@H](NC(=O)[C@H](N)c3ccc(O)cc3)C(=O)N2[C@H]1C(=O)O` [AMPC, amoxicillin, reference compound], the MIC in test [1] is 128 µg/mL (≈ 350 µM); in test [2] it was 64 µg/mL (≈ 175 µM).

As to `C[C@@H](O)[C@H]1C(=O)N2C(C(=O)[O-])=C(SC3Cn4cnc[n+]4C3)[C@H](C)[C@H]12` (some centres unmarked) [BIPM, biapenem, reference compound], the minimum inhibitory concentration (MIC) in test [1] was 16 µg/mL (≈ 45.7 µM); in test [2] it was 2 µg/mL (≈ 5.71 µM).

Regarding `NCCONC(=O)[C@@H]1CC[C@@H]2CN1C(=O)N2OS(=O)(=O)O` [Example 59, (2S,5R)—N-(2-Aminoethoxy)-7-oxo-6-(sulfooxy)-1,6-diazabicyclo[3.2.1]octane-2-carboxamide], the “antibacterial activity (MIC) of ABPC in combinatorial use” value in test [1] (ABPC + 4 μg/mL compound, MDR-TB) was determined as 32 µg/mL; in test [2] (ABPC + 4 μg/mL compound, XDR-TB), 16 µg/mL. Also, the “antibacterial activity (MIC) of AMPC in combinatorial use” value came to 64 µg/mL in test [1] (AMPC + 4 μg/mL compound, MDR-TB) and 16 µg/mL in test [2] (AMPC + 4 μg/mL compound, XDR-TB). The “antibacterial activity (MIC) of BIPM in combinatorial use” value amounted to 4 µg/mL in test [1] (BIPM + 4 μg/mL compound, MDR-TB) and 1 µg/mL in test [2] (BIPM + 4 μg/mL compound, XDR-TB). The “antibacterial activity (MIC) of MEPM in combinatorial use” value was found to be 8 µg/mL in test [1] (MEPM + 4 μg/mL compound, MDR-TB) and 1 µg/mL in test [2] (MEPM + 4 μg/mL compound, XDR-TB). Also, the “antibacterial activity (MIC) of TBPM in combinatorial use” value in test [1] (TBPM + 4 μg/mL compound, MDR-TB) stood at 2 µg/mL; in test [2] (TBPM + 4 μg/mL compound, XDR-TB), 0.5 µg/mL.

With `C[C@@H](O)[C@H]1C(=O)N2C(C(=O)O)=C(S[C@@H]3CN[C@H](C(=O)N(C)C)C3)[C@H](C)[C@H]12` [MEPM, meropenem, reference compound], the minimum inhibitory concentration (MIC) in test [1] worked out at 16 µg/mL (≈ 41.7 µM); in test [2], 4 µg/mL (≈ 10.4 µM).

With `C[C@@H](O)[C@H]1C(=O)N2C(C(=O)O)=C(SC3CN(C4=NCCS4)C3)[C@H](C)[C@H]12` [TBPM, tebipenem, reference compound], the MIC in test [1] was 4 µg/mL (≈ 10.4 µM); in test [2] it was 1 µg/mL (≈ 2.61 µM).

These data come from patent US10556905B2, “Processes for preparing a diazabicyclooctane compound” (priority 2012, dated 2020).
